Experimental data taken from patent US10184933B2, “Compositions, systems and methods for gene expression noise drug screening and uses thereof” (priority 2013, dated 2019).
Entries after “also recorded” stand apart in the source; their conditions may differ. Where a name gives a salt, the structure may show the parent alone. Read-outs that look alike come from different tables or passages of the source.

Tests used:
Format in all cases: cell-based
[1] = system: HIV-1 LTR promoter; conditions: for burst frequency: activator drugs; for burst frequency / mean expression level / variability in gene expression (noise magnitude): FIG. 6D; for mean expression level / variability in gene expression (noise magnitude): known transcriptional modulators applied to the isoclone target
[2] = system: HIV-1 LTR promoter; test: Two-reporter system (LTR-d2GFP and LTR-mCherry) noise measurement; conditions: FIG. 6E; for d2GFP noise / mCherry noise: known transcriptional activators; for transcriptional burst frequency (decreasing noise in mCherry): transcriptional modifiers
Method: Without being bound by theory, a destabilized reporter is required to observe transcriptional noise with shorter time scales. GFP noise magnitude (quantified by the variance over the mean fluorescence squared, CV^2) and mean fluorescence were measured by high-throughput flow cytometry 24 hours post 10 uM drug exposure. To control for extrinsic variability in gene expression due to cell volume and state a conservative gating on the population forward versus side scatter was applied (See General Methods). A second LTR driving a long-lived mCherry reporter was integrated and screened alongside the destabilized reporter drug target to control for fluctuations in global resources and post-transcriptional noise sources (FIG. 6E).
To distinguish between compounds that primarily target transcription versus post-transcriptional processes and global resources (extrinsic noise) a second reporter of the LTR promoter driving a stable mCherry gene was included in the same targeted cell population used in the drug noise screen (FIG. 6E). The stable reporter averages out and is unaffected by fluctuations due to episodic transcription. Theory predicts that the destabilized d2GFP reporter can detect transcriptional bursting noise contributions (γp>>kon,koff, where γp is the fluorescent reporter degradation rate) while the two reporters together will move their noise magnitudes to changes in non-transcriptional noise sources. Filtering out non-transcriptional noise signatures of VM hits increases the probability for synergistic reactivation of latency. Noise from the two reporters was compared using the same processing as the LTR-d2GFP. The LTR-mCherry ΔCV^2 of the 85 selected VMs primarily land along the ΔCV^2 d2GFP axis. […]. Of these 25 compounds 15 were identified as modifiers of cell cycle, ATP, inflammation, post-translational modifications, and translation.
In addition to the GFP reporter in the LTR-d2GFP cell line, an LTR driving a long half-life mCherry reporter was present in the cell line. […] To remove compounds that altered CV^2 post transcriptionally, compounds that affected the CV^2 long-lived red reporter while conserving its mean mCherry level were removed. This method continues development of the original and decade-old 2-reporter system for intrinsic versus extrinsic noise measurements in bacteria (Elowitz et al., (2002) Science 297:1183-1186).

[3] = system: latent HIV-1 in JLat 8.6 cells
[4] = Pharmakon 1600 library, 10 uM, 24 hours, FIG. 10

Row | Molecule | identified as variability enhancer (VE) in noise screen [1, 4] | synergy in reactivation of HIV-1 latency [3] | also measured
1 | CCCCCCCCCCCCCC(=O)O[C@@H]1[C@@H](C)[C@@]2(O)[C@@H](C=C(CO)C[C@]3(O)C(=O)C(C)=C[C@@H]23)[C@@H]2C(C)(C)[C@]12OC(C)=O [PMA, phorbol 12-myristate 13-acetate] | – | – | burst frequency [1]: increase burst frequency; mean expression level [1]: increase mean expression level; variability in gene expression (noise magnitude) [1]: decrease variability in gene expression; also recorded: decrease noise magnitude; d2GFP noise [2]: decrease both mCherry and d2GFP noise; mCherry noise [2]: decrease both mCherry and d2GFP noise; transcriptional burst frequency (decreasing noise in mCherry) [2]: increase transcriptional burst frequency
2 | CCC/C=C/C=C/C(=O)O[C@H]1/C(=C/C(=O)OC)C[C@H]2C[C@H]([C@@H](C)O)OC(=O)C[C@H](O)C[C@@H]3C[C@H](OC(C)=O)C(C)(C)[C@](O)(C[C@@H]4C/C(=C/C(=O)OC)C[C@H](/C=C/C(C)(C)[C@]1(O)O2)O4)O3 [Bryostatin, bryostatin] | – | – | mean expression level [1]: scored lower; d2GFP noise [2]: decrease both mCherry and d2GFP noise; mCherry noise [2]: decrease both mCherry and d2GFP noise; transcriptional burst frequency (decreasing noise in mCherry) [2]: increase transcriptional burst frequency
3 | Nc1ccccc1NC(=O)c1ccc(CNC(=O)OCc2cccnc2)cc1 [MS-275, 3-pyridinylmethyl [[4-[[(2-aminophenyl)amino]carbonyl]phenyl]methyl]carbamate] | – | – | variability in gene expression (noise magnitude) [1]: increase variability in gene expression; also recorded: variability enhancers; d2GFP noise [2]: increase d2GFP noise; mCherry noise [2]: decrease mCherry noise; transcriptional burst frequency (decreasing noise in mCherry) [2]: increase transcriptional burst frequency
4 | Nc1ncn([C@@H]2O[C@H](CO)[C@@H](O)[C@H]2O)c(=O)n1 [AZA, 4-Amino-1-(β-D-ribofuranosyl)1,3,5-triazin-2(1H)-one] | variability enhancers | – | variability in gene expression (noise magnitude) [1]: increase variability in gene expression; also recorded: variability enhancers; transcriptional burst frequency (decreasing noise in mCherry) [2]: increase transcriptional burst frequency
5 | Cc1cc(C(C#N)c2ccc(Cl)cc2)c(Cl)cc1NC(=O)c1cc(I)cc(I)c1O (stereo not drawn) [V34, closantel] | variability enhancers | synergized | –
6 | CC(=O)Nc1c(I)cc(I)c(C(=O)O)c1I [V102, acetriazoic acid] | – | synergized | identified as variability enhancer (VE) in noise screen [1]: variability enhancers
7 | CNC(C)C(O)c1ccccc1 (stereo not drawn) [V87, racephedrine hydrochloride] | variability enhancers | synergized | –
8 | CC(C)(C)NC(=O)[C@H]1CC[C@H]2[C@@H]3CC[C@H]4NC(=O)C=C[C@]4(C)[C@H]3CC[C@]12C [V37, finasteride] | variability enhancers | synergized | –
9 | C[C@]12CC[C@H]3[C@@H](CC[C@@]45O[C@@H]4C(O)=C(C#N)C[C@]35C)[C@@H]1CC[C@@H]2O [V26, trilostane] | variability enhancers | synergized | –
10 | carboplatin [V71] | variability enhancers | – | synergy in reactivation of HIV-1 latency ([3]; with one or more of PMA, prostratin, TNFα, and bryostatin, FIG. 11): synergized
11 | NNc1nncc2ccccc12 [V17, hydralazine hydrochloride] | – | synergized | identified as variability enhancer (VE) in noise screen [1]: variability enhancers
12 | O=C(O)[C@H]1/C(=C/CO)O[C@@H]2CC(=O)N21 [V85, clavulanate lithium] | variability enhancers | synergized | –
13 | CC[C@H]1OC(=O)[C@H](C)[C@@H](O[C@H]2C[C@@](C)(OC)[C@@H](O)[C@H](C)O2)[C@H](C)[C@@H](O[C@@H]2O[C@H](C)C[C@H](N(C)C)[C@H]2O)[C@](C)(O)C[C@@H](C)CN(C)[C@H](C)[C@@H](O)[C@]1(C)O [V43, azithromycin] | variability enhancers | synergized | –
14 | COc1ccc(-c2ccc3cc(C(=O)O)ccc3c2)cc1C12CC3CC(CC(C3)C1)C2 [V36, adapalene] | variability enhancers | synergized | –
15 | CC(C)c1c(C(=O)Nc2ccccc2)c(-c2ccccc2)c(-c2ccc(F)cc2)n1CC[C@@H](O)C[C@@H](O)CC(=O)[O-].CC(C)c1c(C(=O)Nc2ccccc2)c(-c2ccccc2)c(-c2ccc(F)cc2)n1CC[C@@H](O)C[C@@H](O)CC(=O)[O-].[Ca+2] [V20, atorvastatin calcium] | – | synergized | identified as variability enhancer (VE) in noise screen [1]: variability enhancers
16 | CCN(CC)CC#CCOC(=O)C(O)(c1ccccc1)C1CCCCC1 (stereo not drawn) [V48, oxybutynin chloride] | – | synergized | identified as variability enhancer (VE) in noise screen [1]: variability enhancers
17 | CC(=O)OCC(=O)[C@@]1(O)CC[C@H]2[C@@H]3CCC4=CC(=O)CC[C@]4(C)[C@@]3(F)[C@@H](O)C[C@@]21C [V96, fludrocortisone acetate] | – | synergized | identified as variability enhancer (VE) in noise screen [1]: variability enhancers
18 | NC(=O)C[S+]([O-])C(c1ccccc1)c1ccccc1 (stereo not drawn) [V28, modafinil] | variability enhancers | synergized | –
19 | CCN(C(C)=O)c1cccc(-c2ccnc3c(C#N)cnn23)c1 [V97, zaleplon] | variability enhancers | synergized | –
20 | Cc1ccc(S(=O)(=O)NC(=O)NN2CCCCCC2)cc1 [V51, Tolazamide] | variability enhancers | synergized | –
21 | Cc1cccc(C)c1N=C1NCCCS1 [V29, Xylazine hydrochloride] | variability enhancers | synergized | –
22 | CC(C)NCC(O)c1ccc(O)c(O)c1.Cl (racemic) [V86, (±)-Isoproterenol hydrochloride] | – | synergized | identified as variability enhancer (VE) in noise screen [1]: variability enhancers
23 | sucralfate [V79] | variability enhancers | synergized | –
24 | TNFα | – | – | burst frequency [1]: increase burst frequency; mean expression level [1]: increase mean expression level; variability in gene expression (noise magnitude) [1]: decrease variability in gene expression; also recorded: decrease noise magnitude; d2GFP noise [2]: decrease both mCherry and d2GFP noise; mCherry noise [2]: decrease both mCherry and d2GFP noise; transcriptional burst frequency (decreasing noise in mCherry) [2]: increase transcriptional burst frequency
25 | CCCc1nc2c(C)cc(-c3nc4ccccc4n3C)cc2n1Cc1ccc(-c2ccccc2C(=O)O)cc1 [V62, telmisartan] | variability enhancers | synergized | –
26 | CCC(=O)O[C@]1(C(=O)CCl)[C@@H](C)C[C@H]2[C@@H]3CCC4=CC(=O)C=C[C@]4(C)[C@@]3(F)[C@@H](O)C[C@@]21C [V94, clobetasol propionate] | variability enhancers | synergized | –
27 | COc1ccc2c(c1)c(CC(=O)O)c(C)n2C(=O)c1ccc(Cl)cc1 [V18, Indomethacin] | variability enhancers | synergized | –
28 | NCCc1cc(O)c(O)cc1O [V25, oxidopamine hydrochloride] | variability enhancers | synergized | –
